Tests used:
RRE [1] = experiment: UV absorption spectrum screening of drugs mixed with RRE; format: binding, HIV-1; conditions: range of 300 nm to 400 nm; absorption of free compound subtracted or compared
Procedure: Referring to UV absorption spectra of RRE in the presence and absence of naphthyridine dimer, screenings of the drugs was carried out. […] In FIG. 7, the solid line indicates the UV absorption spectrum of RRE alone, and the dotted line indicates a UV absorption spectrum when the absorption of naphthyridine dimer free is subtracted from the absorption of the mixture of naphthyridine dimer and RRE. […] In FIG. 8, the solid line indicates the UV absorption spectrum of RRE alone, and the dotted line indicates a UV absorption spectrum when the absorption of the naphthyridine-azaquinolone hybrid free is subtracted from the absorption of the mixture of the naphthyridine-azaquinolone hybrid and RRE. […] In FIG. 9, the solid line indicates the UV absorption spectrum of RRE alone, and the dotted line indicates a UV absorption spectrum when the absorption of the first quinoline-containing compound free is subtracted from the absorption of the mixture of the first quinoline-containing compound and RRE. […] In FIG. 10, the solid line indicates the UV absorption spectrum of RRE alone, and the dotted line indicates a UV absorption spectrum when the absorption of the second quinoline-containing compound free is subtracted from the absorption of the mixture of the second quinoline-containing compound and RRE. As represented by structural formula (8), the second quinoline-containing compound is obtained by replacing one naphthyridine of naphthyridine dimer with a quinoline incapable of hydrogen-binding to a guanine. [drawing 13] In the present example, comparison was made within a range of 300 nm to 400 nm where no absorption of RRE occurs. Naphthyridine is represented by structural formula (9). Azaquinolone is represented by structural formula (10). […] FIGS. 11-13 respectively illustrate the UV absorption spectra of naphthyridine, azaquinolone, or quinolone alone and the mixture thereof with RRE.

Rev-RRE complex = experiment: Fluorescence polarization (anisotropy) inhibition of Rev-RRE complex formation; format: binding, HIV-1; conditions: for IC50: Rev-Fl / RRE, read-out: IC50 value for inhibiting complex formation; for potency of inhibiting Rev-RRE complex formation compared with neomycine B: anisotropy decrease versus inhibitor concentration
Procedure: By using a fluorescence polarization method, it was tested whether Rev-RRE complex formation was inhibited by naphthyridine dimer and the naphthyridine-azaquinolone hybrid.
A greater molecular weight results in a greater polarization degree, i.e., a greater anisotropy.
Naphthyridine dimer, the naphthyridine-azaquinolone hybrid, and neomycine B were used as inhibitors, and anisotropies of each of the inhibitors was measured. […] The horizontal axis indicates the concentration of each of the inhibitors.
An IC50 value of the trinaphthyridine-azaquinolone hybrid used as an inhibitor was obtained by using the fluorescence polarization method. The IC50 value of the trinaphthyridine-azaquinolone hybrid was 0.2 μM. Further, in FIG. 27, the solid line indicates how a CD spectrum of RRE alone was changed, the dotted line indicates how a CD spectrum of RRE was changed when naphthyridine dimer was added to RRE, the dashed line indicates how a CD spectrum of RRE was changed when the trinaphthyridine-azaquinolone hybrid was added to RRE, and […].
Naphthyridine dimer, the naphthyridine-azaquinolone hybrid, the neomycine B, and the trinaphthyridine-azaquinolone hybrid were used as inhibitors, and anisotropies of each of the inhibitors was measured.

RRE [2] = experiment: CD spectrum change of RRE (and RRE-neg control) on binding of drugs; design: species or system HIV-1; conditions: for binding specificity from CD spectra of RRE versus RRE-neg: RRE-neg has no internal loop (GG and GA mismatch)
Procedure: A change in CD spectrum of RRE due to its binding to each of the drugs was analyzed. In FIG. 14, the solid line indicates a CD spectrum of RRE alone, the dotted line indicates a CD spectrum of a mixture of naphthyridine dimer and RRE, and the dashed line indicates a CD spectrum of a mixture of the naphthyridine-azaquinolone hybrid and RRE. Further, a change in CD spectrum of RRE-neg due to its binding to each of the drugs was analyzed. RRE-neg has no internal loop found in RRE, the internal loop including a GG mismatch and a GA mismatch.

RRE [3] = experiment: SPR binding of RNA to naphthyridine dimer immobilized on sensor chip; design: species or system HIV-1; conditions: RRE over immobilized naphthyridine dimer
Procedure: (§1) In a manner shown in FIG. 17, a binding strength of each of RRE, RRE-neg, TAR, and single-stranded RNA (ss RNA) with respect to naphthyridine dimer immobilized on an SPR sensor chip was analyzed. Like RRE, TAR is known as an HIV-RNA target. In FIG. 18, the solid line indicates the binding strength of RRE, the dotted line the binding strength of RRE-neg, the dashed line the binding strength of TAR, and the double-dashed line the binding strength of ssRNA.

RRE-neg = experiment: as above; conditions: RRE-neg over immobilized naphthyridine dimer
Procedure: Further, a change in CD spectrum of RRE-neg due to its binding to each of the drugs was analyzed. RRE-neg has no internal loop found in RRE, the internal loop including a GG mismatch and a GA mismatch.
as §1

TAR = experiment: as above; design: species or system HIV; conditions: TAR RNA over immobilized naphthyridine dimer
Procedure: as §1

[4] = tested on: single-stranded RNA (ss RNA); experiment: as above; conditions: ssRNA over immobilized naphthyridine dimer
Procedure: as §1

RRE [5] = experiment: UV titration of naphthyridine dimer with RRE; format: binding, HIV-1
Procedure: UV titration was carried out in order to study how naphthyridine dimer bound to RRE.
It was confirmed that as the concentration of RRE increased, the UV absorbance of naphthyridine dimer decreased and the UV absorbance of a complex increased above an isosbestic point.

SMILES: O=C(CCNCCC(=O)Nc1ccc2ccccc2n1)NCc1ccc2ccc(=O)[nH]c2n1 [second quinoline-containing compound]
- change in UV absorption spectrum on mixing with RRE (RRE [1]): no remarkable changes

SMILES: NCC1OC(OC2C(CO)OC(OC3C(O)C(N)CC(N)C3OC3OC(CN)C(O)C(O)C3N)C2O)C(N)C(O)C1O (stereo not shown) [neomycine B, reference compound]
- IC50 (Rev-RRE complex; fluorescence polarization): 4000 nM

SMILES: Cc1ccc2ccc(NC(=O)CCNCCC(=O)Nc3ccc4ccc(C)nc4n3)nc2n1 [naphthyridine dimer]
- change in UV absorption spectrum on mixing with RRE (RRE [1]): significant changes
- change in CD spectrum of RRE when compound added (RRE [2]): significant change in the whole spectrum
- binding specificity from CD spectra of RRE versus RRE-neg (RRE [2]): specifically binds to the internal loop of RRE
- binding strength (SPR signal) (RRE [3]): strong signal
- binding strength (SPR signal) (RRE-neg): almost no responses
- binding strength (SPR signal) (TAR): did not bind at all
- binding strength (SPR signal) [4]: almost no responses
- binding mode to RRE from UV titration (RRE [5]; RRE of various concentrations, absorption at 332 nm): intercalated into a duplex of RRE
- number of naphthyridine dimers forming the complex with RRE (RRE [5]; UV titration): two
- IC50 (Rev-RRE complex; fluorescence polarization): 1200 nM
- potency of inhibiting Rev-RRE complex formation compared with neomycine B (Rev-RRE complex): higher potency

SMILES: NCCC(=O)Nc1ccc2ccccc2n1
- change in UV absorption spectrum on mixing with RRE (RRE [1]): almost no changes

SMILES: Cc1ccc2ccc(NC(=O)CCNCCC(=O)Nc3ccc4ccccc4n3)nc2n1 [first quinoline-containing compound]
- change in UV absorption spectrum on mixing with RRE (RRE [1]): no remarkable changes

SMILES: Cc1ccc2ccc(NC(=O)CCNCCC(=O)NCc3ccc4ccc(=O)[nH]c4n3)nc2n1 [naphthyridine-azaquinolone hybrid]
- change in UV absorption spectrum on mixing with RRE (RRE [1]): significant changes
- change in CD spectrum of RRE when compound added (RRE [2]): change at 300 nm or above
- binding specificity from CD spectra of RRE versus RRE-neg (RRE [2]): specifically binds to the internal loop of RRE
- IC50 (Rev-RRE complex; fluorescence polarization): 2000 nM
- potency of inhibiting Rev-RRE complex formation compared with neomycine B (Rev-RRE complex): higher potency

SMILES: Cc1ccc2ccc(NC(=O)CCN(CCCCCN(CCC(=O)Nc3ccc4ccc(C)nc4n3)CCC(=O)Nc3ccc4ccc(C)nc4n3)CCC(=O)NCc3ccc4ccc(=O)[nH]c4n3)nc2n1 [trinaphthyridine-azaquinolone hybrid]
- IC50 (Rev-RRE complex; fluorescence polarization): 200 nM
- activity relative to neomycine B (Rev-RRE complex; fluorescence polarization): approximately twenty
